Measurements taken from US11202814B2, “Compositions for atopic skin” (INFINITEC ACTIVOS, S.L., priority 2018, dated 2021).

System: PGE2 release
Assay: Inhibitory effect on PGE2 release in cell culture, inflammation induced by IL1a
Format: cell-based, human
Procedure: The inhibitory effect on IL1a inflammatory induction of the non-encapsulated composition of Pinus pinaster bark extract and curcumin, capsules loaded with Pinus pinaster bark extract and curcumin, unloaded capsules, non-encapsulated composition of Pinus pinaster bark extract and non-encapsulated composition of curcumin were analysed on human dermal fibroblasts.
Human dermal fibroblasts (LIFE TECHNOLOGIES), seeded in a 96-well plate up to 80% confluency, were treated with the following compositions dissolved in medium DMEM (Dulbecco's Modified Eagle Medium) to a total volume of 1 ml: • a) pine bark extract (1%) • b) curcumin (0.01%) • c) Phosphotech phospholipids (having the same composition has described in example 2) (4%) • d) curcumin (0.01%)+pine bark extract (1%) • e) capsules (curcumin (0.01%)+pine bark extract (1%)+Phosphotech phospholipids (having the same composition has described in example 2) (4%)) for 48 hours. […] After 24 hours inhibitory effect on PGE2 in culture cell was measured using prostaglandin E2 EIA kit (Prostaglandin E2 EIA kit—Monoclonal (Item: 514010) Cayman Chemical).
The results are provided in Table 4 below wherein the PGE2 release is expressed in pg/ml. The reduction vs IL1a-induced fibroblasts is calculated as the result of PGE2 obtained for each treatment/the result of PGE2 obtained for IL1a-induced fibroblasts (without any treatment). […]

Substance: curcumin [Composition b]
- Calculated reduction vs IL1a-induced fibroblasts (PGE2 of treatment / PGE2 of IL1a-induced fibroblasts (2170 pg/ml)): 0.232
- PGE2 (human dermal fibroblasts treated 48 hours, IL1a 5 pM, untreated IL1a-induced fibroblasts 2170, control 471 pg/ml): 503 pg/mL
